Test results reported in patent US20040116420A1 (priority 2001, published 2004).

Columns and labels:
HSV-1 protease = molecular target: T1, HSV-1 protease (Human herpesvirus 1, UniProt P10210); assay: Enzymatic assay for HSV-1 protease (assembly) inhibitor, fluorescence polarization; assay type: biochemical; settings: read-out: HSV-1 Enzyme inhibition IC50
T1 construct: 6xHis (N); made in house; host or cells: baculovirus expression system
Procedure, shortened: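 His6-tagged HSV-1 UL26 protease, baculovirus-expressed, preincubated 30 min at RT with compound in 1 M citrate/phosphate buffer pH 7.4 with 20% glycerol and 2 mM TCEP. A biotin-HTYLQA*SERFRIK-DTAF substrate was then cleaved for 60 min at RT, stopped with avidin, and read by fluorescence polarization versus no-inhibitor control.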

HSV-1 = assay: Antiviral activity, HSV-1 in Vero cells, plaque method; assay type: cell-based; settings: Human alphaherpesvirus 1, 20 hours, 90% inhibition of plaque formation
Procedure, shortened: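 HSV-1 (50,000 pfu in 2% FBS-DMEM) was added to Vero cells and removed, then the compound was applied in 2% FBS-DMEM for 20 h at 37° C, 5% CO2. After a freeze-thaw, virus yield in the medium was titred by plaque assay. EC90 is the concentration giving 90% plaque reduction versus the compound-free control.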

Vero cells = assay: Cytotoxicity, Vero cells, Alamar Blue; assay type: cell-based; settings: 25 μM, 20 hours
Procedure, shortened: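 Overnight-seeded Vero cells were exposed to 25 μM compound in 2% FBS-DMEM for 20 h at 37 °C, 5% CO2. Alamar Blue was then added for about 6 h. The absorbance ratio relative to compound-free control gave the living-cell ratio.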

T1 sequence (P10210 1-247): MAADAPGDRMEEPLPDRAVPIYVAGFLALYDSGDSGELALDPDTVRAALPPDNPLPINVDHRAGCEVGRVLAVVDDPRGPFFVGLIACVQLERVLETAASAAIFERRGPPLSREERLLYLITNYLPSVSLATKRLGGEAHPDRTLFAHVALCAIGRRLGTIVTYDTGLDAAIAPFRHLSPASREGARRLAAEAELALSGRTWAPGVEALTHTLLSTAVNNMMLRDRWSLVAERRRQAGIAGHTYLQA

| SMILES | IC50 (HSV-1 protease) [µM] | EC90 (HSV-1) [µM] | Cell viability (% of control) (Vero cells) [%] |
| --- | --- | --- | --- |
| Cc1c(NC(=O)c2ccccc2F)ccc2nc(NC(C)(C)C(=O)N(C)CCc3ccccn3)oc(=O)c12 [Compound No.147, 2-Fluoro-N-(5-methyl-2-{1-methyl-1-[methyl-(2-pyridin-2-yl-ethyl)-carbamoyl]-ethylamino}-4-oxo-4H-benzo[d][1,3]oxazin-6-yl)-benzamide] | 1.6 | 10.2 | 70.2 |
| Cc1c(NC(=O)c2cccc(F)c2)ccc2nc(NC(C)(C)C(=O)N(C)CCc3ccccn3)oc(=O)c12 [Compound No.148, 3-Fluoro-N-(5-methyl-2-{1-methyl-1-[methyl-(2-pyridin-2-yl-ethyl)-carbamoyl]-ethylamino}-4-oxo-4H-benzo[d][1,3]oxazin-6-yl)-benzamide] | 1.5 | 10.3 | 54.6 |
| Cc1c(NC(=O)c2ccc(F)cc2)ccc2nc(NC(C)(C)C(=O)N(C)CCc3ccccn3)oc(=O)c12 [Compound No.149, 4-Fluoro-N-(5-methyl-2-{1-methyl-1-[methyl-(2-pyridin-2-yl-ethyl)-carbamoyl]-ethylamino}-4-oxo-4H-benzo[d][1,3]oxazin-6-yl)-benzamide] | 1.5 | 10.6 | 65.4 |
| COC(=O)c1ccc(C(=O)Nc2ccc3nc(NC(C)(C)C(=O)N(C)CCc4ccccn4)oc(=O)c3c2C)cc1 [Compound No.150, N-(5-Methyl-2-{1-methyl-1-[methyl-(2-pyridin-2-yl-ethyl)-carbamoyl]-ethylamino}-4-oxo-4H-benzo[d][1,3]oxazin-6-yl)-tetraphthalic acid methyl ester] | 1.4 | 6.1 | 81.5 |
| Cc1c(NC(=O)c2cccc(Cl)c2)ccc2nc(NC(C)(C)C(=O)N(C)CCc3ccccn3)oc(=O)c12 [Compound No.152, 3-Chloro-N-(5-methyl-2-{1-methyl-1-[methyl-(2-pyridin-2-yl-ethyl)-carbamoyl]-ethylamino}-4-oxo-4H-benzo[d][1,3]oxazin-6-yl)-benzamide] | 1.8 | 6.3 | 30.9 |
| Cc1c(NC(=O)c2ccc(Cl)cc2)ccc2nc(NC(C)(C)C(=O)N(C)CCc3ccccn3)oc(=O)c12 [Compound No.153, 4-Chloro-N-(5-methyl-2-{1-methyl-1-[methyl-(2-pyridin-2-yl-ethyl)-carbamoyl]-ethylamino}-4-oxo-4H-benzo[d][1,3]oxazin-6-yl)-benzamide] | 2.6 | 6.2 | 48.6 |
| Cc1c(NC(=O)c2ccc(Br)cc2)ccc2nc(NC(C)(C)C(=O)N(C)CCc3ccccn3)oc(=O)c12 [Compound No.154, 4-Bromo-N-(5-methyl-2-{1-methyl-1-[methyl-(2-pyridin-2-yl-ethyl)-carbamoyl]-ethylamino}-4-oxo-4H-benzo[d][1,3]oxazin-6-yl)-benzamide] | 2.4 | 5.4 | 28.3 |
| Cc1c(NC(=O)c2ccccc2I)ccc2nc(NC(C)(C)C(=O)N(C)CCc3ccccn3)oc(=O)c12 [Compound No.155, 2-Iodo-N-(5-methyl-2-{1-methyl-1-[methyl-(2-pyridin-2-yl-ethyl)-carbamoyl]-ethylamino}-4-oxo-4H-benzo[d][1,3]oxazin-6-yl)-benzamide] | 1.5 | > 12.5 | 69.1 |
| Cc1ccccc1C(=O)Nc1ccc2nc(NC(C)(C)C(=O)N(C)CCc3ccccn3)oc(=O)c2c1C [Compound No.156, 2-Methyl-N-(5-methyl-2-{1-methyl-1-[methyl-(2-pyridin-2-yl-ethyl)-carbamoyl]-ethylamino}-4-oxo-4H-benzo[d][1,3]oxazin-6-yl)-benzamide] | 3.8 | > 12.5 | 78.0 |
| Cc1ccc(C(=O)Nc2ccc3nc(NC(C)(C)C(=O)N(C)CCc4ccccn4)oc(=O)c3c2C)cc1 [Compound No.158, 4-Methyl-N-(5-methyl-2-{1-methyl-1-[methyl-(2-pyridin-2-yl-ethyl)-carbamoyl]-ethylamino}-4-oxo-4H-benzo[d][1,3]oxazin-6-yl)-benzamide] | 3.3 | 8.3 | 63.6 |
| Cc1c(NC(=O)C=Cc2ccccc2)ccc2nc(NC(C)(C)C(=O)N(C)CCc3ccccn3)oc(=O)c12 [Compound No.159, N-(5-Methyl-2-{1-methyl-1-[methyl-(2-pyridin-2-yl-ethyl)-carbamoyl]-ethylamino}-4-oxo-4H-benzo[d][1,3]oxazin-6-yl)-3-phenyl-acrylamide] | 1.4 | 10.8 | 15.9 |
| Cc1c(NC(=O)CCC2CCCCC2)ccc2nc(NC(C)(C)C(=O)N(C)CCc3ccccn3)oc(=O)c12 [Compound No.160, 2-[6-(3-Cyclohexyl-propionylamino)-5-methyl-4-oxo-4H-benzo[d][1,3]oxazin-2-ylamino]-2,N-dimethyl-N-(2-pyridin-2-yl-ethyl)-propionamide] | 1.1 | 11.3 | 13.0 |
| COc1ccccc1C(=O)Nc1ccc2nc(NC(C)(C)C(=O)N(C)CCc3ccccn3)oc(=O)c2c1C [Compound No.161, 2-Methoxy-N-(5-methyl-2-{1-methyl-1-[methyl-(2-pyridin-2-yl-ethyl)-carbamoyl]-ethylamino}-4-oxo-4H-benzo[d][1,3]oxazin-6-yl)-benzamide] | 2.8 | 11.4 | 44.1 |
| COc1cccc(C(=O)Nc2ccc3nc(NC(C)(C)C(=O)N(C)CCc4ccccn4)oc(=O)c3c2C)c1 [Compound No.162, 3-Methoxy-N-(5-methyl-2-{1-methyl-1-[methyl-(2-pyridin-2-yl-ethyl)-carbamoyl]-ethylamino}-4-oxo-4H-benzo[d][1,3]oxazin-6-yl)-benzamide] | 1.8 | 10.2 | 75.5 |
| COc1ccc(C(=O)Nc2ccc3nc(NC(C)(C)C(=O)N(C)CCc4ccccn4)oc(=O)c3c2C)cc1 [Compound No.163, 4-Methoxy-N-(5-methyl-2-{1-methyl-1-[methyl-(2-pyridin-2-yl-ethyl)-carbamoyl]-ethylamino}-4-oxo-4H-benzo[d][1,3]oxazin-6-yl)-benzamide] | 1.3 | 10.7 | 66.0 |
| CCOc1ccc(C(=O)Nc2ccc3nc(NC(C)(C)C(=O)N(C)CCc4ccccn4)oc(=O)c3c2C)cc1 [Compound No.164, 4-Ethoxy-N-(5-methyl-2-{1-methyl-1-[methyl-(2-pyridin-2-yl-ethyl)-carbamoyl]-ethylamino}-4-oxo-4H-benzo[d][1,3]oxazin-6-yl)-benzamide] | 1.4 | 6.2 | 47.7 |
| CCCCOc1ccc(C(=O)Nc2ccc3nc(NC(C)(C)C(=O)N(C)CCc4ccccn4)oc(=O)c3c2C)cc1 [Compound No.165, 4-Butoxy-N-(5-methyl-2-{1-methyl-1-[methyl-(2-pyridin-2-yl-ethyl)-carbamoyl]-ethylamino}-4-oxo-4H-benzo[d][1,3]oxazin-6-yl)-benzamide] | 2 | 3.6 | 16.9 |
| CCCc1ccc(C(=O)Nc2ccc3nc(NC(C)(C)C(=O)N(C)CCc4ccccn4)oc(=O)c3c2C)cc1 [Compound No.166, N-(5-Methyl-2-{1-methyl-1-[methyl-(2-pyridin-2-yl-ethyl)-carbamoyl]-ethylamino}-4-oxo-4H-benzo[d][1,3]oxazin-6-yl)-4-propyl-benzamide] | 1.2 | 5.8 | 15.9 |
| CCCCc1ccc(C(=O)Nc2ccc3nc(NC(C)(C)C(=O)N(C)CCc4ccccn4)oc(=O)c3c2C)cc1 [Compound No.167, 4-Butyl-N-(5-methyl-2-{1-methyl-1-[methyl-(2-pyridin-2-yl-ethyl)-carbamoyl]-ethylamino}-4-oxo-4H-benzo[d][1,3]oxazin-6-yl)-benzamide] | 1.7 | 3.6 | −6.1 |
| Cc1c(NC(=O)c2ccc(C(C)(C)C)cc2)ccc2nc(NC(C)(C)C(=O)N(C)CCc3ccccn3)oc(=O)c12 [Compound No.168, 4-tert-Butyl-N-(5-methyl-2-{1-methyl-1-[methyl-(2-pyridin-2-yl-ethyl)-carbamoyl]-ethylamino}-4-oxo-4H-benzo[d][1,3]oxazin-6-yl)-benzamide] | 1.3 | 3.6 | 16.8 |
| Cc1c(NC(=O)c2ccc(-c3ccccc3)cc2)ccc2nc(NC(C)(C)C(=O)N(C)CCc3ccccn3)oc(=O)c12 [Compound No.169, Biphenylyl-4-carboxylic acid (5-methyl-2-{1-methyl-1-[methyl-(2-pyridin-2-yl-ethyl)-carbamoyl]-ethylamino}-4-oxo-4H-benzo[d][1,3]oxazin-6-yl)-amide] | 1 | 5.7 | 7.0 |
| Cc1c(NC(=O)c2cccc(CCl)c2)ccc2nc(NC(C)(C)C(=O)N(C)CCc3ccccn3)oc(=O)c12 [Compound No.170, 3-Chloromethyl-N-(5-methyl-2-{1-methyl-1-[methyl-(2-pyridin-2-yl-ethyl)-carbamoyl]-ethylamino}-4-oxo-4H-benzo [d][1,3]oxazin-6-yl)-benzamide] | 1.5 | 7.8 | 13.6 |
